From US7667052B2 (Eisai R&D Management Co., Ltd., priority 2003, dated 2010)
Read-outs that look alike come from different tables or passages of the source.

Experiments:
[1] = system: human breast cancer BSY-1 cell; assay: Solid cancer proliferation suppressing action, subcutaneous transplant; format: in vivo, mice; conditions: 10 mg/kg once intravenous
Experimental: In order to study solid cancer proliferation suppressing action of 11107B in vivo, human breast cancer BSY-1 cell was transplanted to the subcutaneous body sides of mice. The animals were grouped so that the average of the volumes of the respective groups became uniform, when it reached about 100 mm^3. Control group was made as 10 mice and 11107B-administering groups were made as 5 mice. 11107B was administrated for the 11107B-administering groups once by intravenous injection so as to be 10 mg/kg, and a vehicle was administered to the control group. The tumor volumes on the fifth day, eighth day, 12th day and 15th day were measured, and relative tumor volumes were determined setting the tumor volume at the initiation of administration as 1.

[2] = system: VEGF production in U251 human glioma cell; assay: VEGF production suppressing action under low oxygen, ELISA; format: cell-based; conditions: for VEGF production suppression, in words: U251, low oxygen stimulation
Experimental: U251 human glioma cell cultured in DULBECCO-modified eagle medium (DMEM; manufactured by SIGMA Co., Ltd.) containing 10% fetal calf serum, penicillin (100 unit/ml) and streptomycin (100 μg/ml) was dispensed in 96-well plates by 4×10^4 cells/well. After culturing at 37° C. overnight in a CO2 incubator (5% CO2), the media were removed, and 180 μl of the above-mentioned incubation solution was charged. After adding 20 μL of the above-mentioned incubation solution containing the test compound diluted with 3-fold succession, they were incubated in a low oxygen (2% O2) incubator for 18 hours. The supernatants thereof were measured by an ELISA kit (Immunobiology Research Institute).
Concentration at which the amount of VEGF expressed by low oxygen stimulation was suppressed to 50% (IC50 value) was determined and results are shown in Table 9. […] The activities of 11107F and 11107G were very weak.

[3] = system: transcription from VEGF promoter; assay: VEGF transcription-suppressing activity, VEGF-PLAP reporter in U251/1-8 cell; format: cell-based; conditions: Homo sapiens, U-251, U251/1-8 cell, PLAP activity, low oxygen 18 hours
In short: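 U251 glioma clone stably carrying a ~2.3 kb human VEGF promoter–secreted PLAP reporter, 4×10^4 cells/well, exposed to 3-fold dilutions of compound for 18 h under low oxygen. Supernatant PLAP read by chemiluminescence at pH 10.0; IC50 = 50% suppression, normoxia 0%, hypoxia 100%.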

[4] = Solubility (physico-chemical properties of the 11107 analogues); conditions: in dimethylsulfoxide, pyridine, methanol, acetone and water
P388 mouse leukemia cell = conditions: Seki-Asano M. et al, J. Antibiotics Vol. 47, 1395-1401, 1994; cited from earlier work
[5] = read-out: IC50 values of VEGF transcription-suppressing activity (range given)
[6] = read-out: VEGF transcription suppressing activity (IC50: nM)

Structure (SMILES) | IC50 [3, 5] | IC50 [3, 6] | VEGF production suppression, in words [2] | Solubility [4] | also measured
CCC(O)C(C)C1OC1CC(C)/C=C/C=C(\C)C1OC(=O)CC(O)CCC(C)(O)C(OC(C)=O)/C=C/C1C (stereo not shown) [11107 B] |  |  |  |  | relative tumor volume ([1]; day 1 after the administration (volume at initiation of administration set as 1)): 1; relative tumor volume ([1]; day 5 after the administration): 1.08; relative tumor volume ([1]; day 8 after the administration): 1.28; relative tumor volume ([1]; day 12 after the administration): 1.40; relative tumor volume ([1]; day 15 after the administration): 1.70; VEGF production suppressing action: IC50 ([2]; U251, low oxygen (2% O2) incubator 18 hours): 0.8 ng/mL
CCC(=O)C(C)C1OC1CC(C)/C=C/C=C(\C)C1OC(=O)CC(O)CCC(C)(O)C(OC(C)=O)/C=C/C1C (stereo not shown) [11107C, (8E,12E,14E)-7-Acetoxy-3,6-dihydroxy-6,10,12,16,20-pentamethyl-21-oxo-18,19-epoxytricosa-8,12,14-trien-11-olide] | 1 to 100 nM | 8.2 nM | strong successive to 11107B |  | 
CCC(O)C(C)C1OC1CC(C)(O)/C=C/C=C(\C)C1OC(=O)CC(O)CCC(C)(O)C(OC(C)=O)/C=C/C1C (stereo not shown) [11107D] | 1 to 100 nM | 6.6 nM | strong successive to 11107B | soluble in dimethylsulfoxide, pyridine, methanol and acetone, and slightly soluble in water | 
CCC(O)C(C)(O)C1OC1CC(C)/C=C/C=C(\C)C1OC(=O)CC(O)CCC(C)(O)C(O)/C=C/C1C (stereo not shown) [11107G] |  |  | very weak | soluble in dimethylsulfoxide, pyridine, methanol and acetone, and slightly soluble in water | 
CCC(OC)C(C)C1OC1C(O)C(C)/C=C/C=C(\C)C1OC(=O)CC(O)CCC(C)(O)C(OC(C)=O)/C=C/C1C (stereo not shown) [FD895] |  |  |  |  | effect in an animal experiment using P388 mouse leukemia cell (P388 mouse leukemia cell): ineffective
